Test results from ChEMBL document CHEMBL2401653, “Synthesis, structure-property relationships and pharmacokinetic evaluation of ethyl 6-aminonicotinate sulfonylureas as antagonists of the P2Y₁₂ receptor” (Eur J Med Chem, 2013).

Tests used:
[1] = 1-octanol-phosphate buffer distribution coefficient, log D of the compound at pH 7.4 after 2 days by shake flask method; assay type: physicochemical
[2] = Stability of the compound in MeCN assessed as compound remaining at room temperature; assay type: physicochemical
P2Y purinoceptor 12 [3] = molecular target: T1, P2Y purinoceptor 12 (Homo sapiens, UniProt Q9H244)
T1 sequence (Q9H244 whole entry): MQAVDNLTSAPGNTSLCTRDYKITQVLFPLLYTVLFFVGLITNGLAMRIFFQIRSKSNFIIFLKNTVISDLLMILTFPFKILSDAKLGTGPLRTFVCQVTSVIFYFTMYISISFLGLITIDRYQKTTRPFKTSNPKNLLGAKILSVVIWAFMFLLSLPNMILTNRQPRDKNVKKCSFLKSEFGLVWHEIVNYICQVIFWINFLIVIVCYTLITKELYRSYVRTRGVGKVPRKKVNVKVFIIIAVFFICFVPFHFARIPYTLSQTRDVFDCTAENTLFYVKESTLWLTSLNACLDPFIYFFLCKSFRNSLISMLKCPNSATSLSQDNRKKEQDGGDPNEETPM
Description: Displacement of [125I]-AZ11931285 from P2Y12 receptor (unknown origin) after 1 hr by scintillation counting analysis

P2Y purinoceptor 12 [4] = molecular target: T1, P2Y purinoceptor 12; remark: listed apart in the source
Liver microsomes [5] = test: Intrinsic clearance in rat liver microsomes at 1 umol/L by LC/MS analysis in presence of NADPH; assay type: ADME, Microsome; settings: 1 µM
Liver microsomes [6] = test: Intrinsic clearance in human liver microsomes at 1 umol/L by LC/MS analysis in presence of NADPH; assay type: ADME, Microsome; settings: 1 µM
[7] = Apparent Permeability across apical to basolateral side in human Caco2 cells at 1 to 10 uM measured at 30 to 90 mins by LC/MS analysis; assay type: ADME, cell-based; settings: Caco-2
Liver microsomes [8] = test: Metabolic stability in human liver microsomes at 1 umol/L by LC/MS analysis in absence of NADPH; assay type: ADME, Microsome; settings: 1 µM
Liver microsomes [9] = test: Metabolic stability in rat liver microsomes at 1 umol/L by LC/MS analysis in absence of NADPH; assay type: ADME, Microsome; settings: 1 µM
[10] = Fraction unbound in human plasma; assay type: ADME, cell-free
[11] = Clearance in iv dosed rat; assay type: ADME, organism-based; settings: in vivo
Plasma = test: Metabolic stability in rat plasma by HRMS analysis; assay type: ADME, cell-free
[12] = Oral bioavailability in rat; assay type: ADME, organism-based; settings: in vivo
[13] = Half life in iv dosed rat; assay type: ADME, organism-based; settings: in vivo
[14] = Half life in po dosed rat; assay type: ADME, organism-based; settings: in vivo

| logD at 48 h [1] | Stability [2] | IC50 (P2Y purinoceptor 12 [3]) [nM] | IC50 (P2Y purinoceptor 12 [4]) [nM] | Intrinsic clearance (Liver microsomes [5]) [µL/min/mg] | Intrinsic clearance (CLint) (Liver microsomes [6]) [µL/min/mg] | Papp A→B at up to 10 µM [7] [×10⁻⁶ cm/s] | SMILES | other results |
| --- | --- | --- | --- | --- | --- | --- | --- | --- |
| 3.7 | Stable | – | – | – | – | – | CCOC(=O)c1cnc(N2CCN(C(=O)Nc3ccccc3)CC2)c(C#N)c1 | – |
| – | Stable | – | – | – | – | – | CCOC(=O)c1cnc(N2CCN(C(=O)Nc3ccccc3)CC2)c(Cl)c1 | – |
| – | Stable | – | – | – | – | – | CCOC(=O)c1cnc(N2CCN(C(=O)Nc3ccccc3C)CC2)c(Cl)c1 | – |
| – | Stable | – | – | – | – | – | CCOC(=O)c1cnc(N2CCN(C(=O)Nc3ccc(C)cc3)CC2)c(Cl)c1 | – |
| 5 | Stable | – | – | – | – | – | CCOC(=O)c1cc(C#N)c(N2CCN(C(=O)NCc3ccc(F)cc3)CC2)nc1C(F)(F)F | – |
| 0.9 | Stable | 630 | 240 | – | – | – | CCOC(=O)c1cc(C#N)c(N2CCCN(C(=O)NS(=O)(=O)c3ccc(Cl)s3)CC2)nc1C | – |
| – | Stable | 2900 | 690 | – | – | – | CCOC(=O)c1cc(C#N)c(N2C[C@@H]3C[C@H]2CN3C(=O)NS(=O)(=O)c2ccc(Cl)s2)nc1C | – |
| 0.4 | Stable | 240 | 580 | < 19 | < 13 | 0.39 | CCOC(=O)c1cc(C#N)c(N2CC3CN(C(=O)NS(=O)(=O)c4ccccc4)CC3C2)nc1C (configuration not stated) | – |
| 0.9 | Stable | 650 | 3200 | – | – | – | COC(=O)c1cnc(N2CCN(C(=O)NS(=O)(=O)c3ccc(Cl)s3)CC2)c(Cl)c1 | – |
| 1.6 | Stable | 210 | 240 | – | – | – | CCCOC(=O)c1cnc(N2CCN(C(=O)NS(=O)(=O)c3ccc(Cl)s3)CC2)c(Cl)c1 | – |
| 2.3 | Stable | 95 | 150 | – | > 70 | 0.5 | CCCCOC(=O)c1cnc(N2CCN(C(=O)NS(=O)(=O)c3ccc(Cl)s3)CC2)c(Cl)c1 | – |
| 1.5 | Stable | 250 | 530 | > 104 | > 70 | – | CC(C)OC(=O)c1cnc(N2CCN(C(=O)NS(=O)(=O)c3ccc(Cl)s3)CC2)c(Cl)c1 | – |
| 2.7 | Stable | 140 | 110 | – | > 70 | 0.44 | CC(C)CCOC(=O)c1cnc(N2CCN(C(=O)NS(=O)(=O)c3ccc(Cl)s3)CC2)c(Cl)c1 | – |
| 1.3 | Stable | 560 | 890 | > 104 | – | 0.16 | CCCC(=O)c1cnc(N2CCN(C(=O)NS(=O)(=O)c3ccc(Cl)s3)CC2)c(Cl)c1 | – |
| 1.2 | Stable | 420 | 1300 | < 19 | < 13 | 0.12 | O=C(c1cnc(N2CCN(C(=O)NS(=O)(=O)c3ccc(Cl)s3)CC2)c(Cl)c1)C1CC1 | – |
| – | Stable | 9300 | 14000 | – | – | – | CCCS(=O)(=O)c1cnc(N2CCN(C(=O)NS(=O)(=O)c3ccc(Cl)s3)CC2)c(Cl)c1 | – |
| 1.5 | Stable | 660 | 1800 | > 104 | – | – | CCOC(=O)c1ccc(N2CCN(C(=O)NS(=O)(=O)c3ccc(Cl)s3)CC2)c(Cl)c1 | – |
| – | Stable | 2400 | 1700 | – | – | – | C=C(NC(=O)N1CCN(c2ncc(C(=O)OCC)cc2Cl)CC1)c1ccccc1 | – |
| – | Stable | 170 | 220 | > 104 | > 70 | 0.6 | CCOC(=O)c1cc(C#N)c(N2CCN(C(=O)NS(=O)(=O)c3ccccc3)CC2)nc1C(F)(F)F | Stability (Liver microsomes [8]): Stable; Stability (Liver microsomes [9]): Stable |
| – | Stable | 430 | 380 | – | – | – | CCOC(=O)c1cc(C#N)c(N2CCN(C(=O)NS(=O)(=O)c3ccccc3C)CC2)nc1C(F)(F)F | – |

| logD at 48 h [1] | Stability [2] | IC50 (P2Y purinoceptor 12 [3]) [nM] | IC50 (P2Y purinoceptor 12 [4]) [nM] | Intrinsic clearance (Liver microsomes [5]) [µL/min/mg] | Intrinsic clearance (CLint) (Liver microsomes [6]) [µL/min/mg] | Papp A→B at up to 10 µM [7] [×10⁻⁶ cm/s] | SMILES | other results |
| --- | --- | --- | --- | --- | --- | --- | --- | --- |
| – | Stable | 690 | 470 | – | – | – | CCOC(=O)c1cc(C#N)c(N2CCN(C(=O)NS(=O)(=O)c3ccccc3Cl)CC2)nc1C(F)(F)F | – |
| – | Stable | 68 | 97 | > 104 | > 70 | 0.13 | CCOC(=O)c1cc(C#N)c(N2CCN(C(=O)NS(=O)(=O)c3ccc(Cl)cc3)CC2)nc1C(F)(F)F | – |
| 0.4 | Stable | 230 | 210 | > 104 | – | 0.053 | CCOC(=O)c1cc(C#N)c(N2CCN(C(=O)NS(=O)(=O)c3ccc(F)cc3)CC2)nc1C(F)(F)F | – |
| 0.6 | Stable | 870 | 990 | – | – | – | CCOC(=O)c1cnc(N2CCN(C(=O)NS(=O)(=O)c3ccccc3Cl)CC2)c(Cl)c1 | – |
| 0.6 | Stable | 370 | 470 | > 104 | > 70 | 0.54 | CCOC(=O)c1cnc(N2CCN(C(=O)NS(=O)(=O)c3ccc(F)cc3)CC2)c(Cl)c1 | – |
| 0.4 | Stable | 62 | 190 | < 19 | < 13 | 0.41 | CCOC(=O)c1cc(C#N)c(N2CC(NC(=O)NS(=O)(=O)c3ccccc3)C2)nc1C | fraction unbound [10]: < 0.015; clearance [11]: 13 mL/min/kg; Stability (Plasma): Unstable; bioavailability [12]: 39%; half-life [13]: 1.7 h; half-life [14]: 9 h |
| 1.1 | Stable | 86 | 78 | – | < 13 | 1.2 | CCOC(=O)c1cc(C#N)c(N2CC(NC(=O)NS(=O)(=O)c3ccc(Cl)cc3)C2)nc1C | – |
| 1.1 | Stable | 79 | 82 | – | – | 1.2 | CCOC(=O)c1cc(C#N)c(N2CC(NC(=O)NS(=O)(=O)Cc3ccccc3)C2)nc1C | fraction unbound [10]: < 0.015; clearance [11]: 31 mL/min/kg; Stability (Plasma): Unstable; bioavailability [12]: 3%; half-life [13]: 0.55 h; half-life [14]: 1.3 h |
| 1.6 | Stable | 27 | 57 | > 104 | > 70 | 6.9 | CCOC(=O)c1cc(C#N)c(N2CCC(NC(=O)NS(=O)(=O)c3ccc(Cl)s3)CC2)nc1C | – |
| 2.1 | Stable | 190 | 260 | > 104 | > 70 | 19 | CCOC(=O)c1cc(C#N)c(N2CCC(NC(=O)NS(=O)(=O)c3ccc(Cl)cc3)CC2)nc1C | – |
| 1.9 | Stable | 88 | 150 | > 104 | – | 30 | CCOC(=O)c1cc(C#N)c(N2CCC(NC(=O)NS(=O)(=O)Cc3ccccc3)CC2)nc1C | – |
| – | Stable | 140 | 130 | – | – | 0.3 | CCOC(=O)c1cc(C#N)c(N2CCN(C(=O)NS(=O)(=O)c3ccccc3)CC2)nc1C | Stability (Liver microsomes [8]): Stable; Stability (Liver microsomes [9]): Stable |
| 0.9 | Stable | 33 | 54 | > 104 | < 13 | 0.37 | CCOC(=O)c1cc(C#N)c(N2CCN(C(=O)NS(=O)(=O)Cc3ccccc3)CC2)nc1C | – |
| – | Stable | 12000 | 3700 | – | – | – | CCOC(=O)c1cnc(N2CCN(C(=S)Nc3ccccc3)CC2)c(Cl)c1 | – |
| – | Stable | 9900 | 5300 | – | – | – | CCOC(=O)c1cnc(N2CCN(C(=O)NC(=O)c3ccccc3)CC2)c(Cl)c1 | – |
| – | Stable | 2400 | 990 | – | – | – | CCOC(=O)c1cnc(N2CCN(C(=S)NC(=O)c3ccccc3)CC2)c(Cl)c1 | – |
| < 0.5 | Stable | > 33000 | – | – | – | – | O=C(O)c1cnc(N2CCN(C(=O)NS(=O)(=O)c3ccccc3)CC2)c(Cl)c1 | – |
| – | Stable | 95 | 110 | > 104 | < 13 | 0.19 | CCOC(=O)c1cc(C#N)c(N2CCN(C(=O)NS(=O)(=O)c3ccc(Cl)s3)C(CCC(=O)O)C2)nc1C(F)(F)F (racemic) | fraction unbound [10]: < 0.015; clearance [11]: 46 mL/min/kg; Stability (Plasma): Unstable; bioavailability [12]: 0.83%; half-life [13]: 0.62 h; half-life [14]: 4 h |
| 1.6 | Stable | 64 | 37 | > 104 | > 70 | 0.31 | CCOC(=O)c1cc(C#N)c(N2CCN(C(=O)NS(=O)(=O)c3ccc(Cl)s3)CC2C)nc1C (racemic) | – |
